# Source: publication PMC9322451 (Clinical Pharmacology in Drug Development, 2022)
# Experiments:
# [1] = system: CYP3A4; parameters: method as in unpublished data; details: ref unpublished data; cited from earlier work
# [2] = Phase 1 part A: safety (TEAEs); format: in vivo, human; details: for Any TEAE / Headache (TEAE) / Nasopharyngitis (TEAE) / SAE / Severe TEAE / Skin exfoliation (TEAE) / TEAE leading to death / TEAE leading to discontinuation: Part A
# Procedure: The study was conducted sequentially in 2 parts. […] Eligible participants were admitted to the clinical unit for single‐dose evaluation from days −2 to 2 and from days 29 to 31 for steady‐state PK and safety evaluation. Participants self‐administered daily doses after an overnight fast of at least 10 hours on days 4 to 30, with outpatient visits on days 3, 4, 7, 14, 21, 32, 33, and 61 (Figure S1). […] Dosing of the 40‐mg group commenced when the safety of 25 mg was deemed acceptable by both the investigator and the sponsor's (Insmed Incorporated, Bridgewater, New Jersey) medical monitor.
# Safety was assessed from the signing of informed consent until the end of study and included the following variables: treatment‐emergent adverse events (TEAEs), serious adverse events (SAEs), clinical laboratory tests (clinical chemistry, hematology, coagulation [part A only], and urinalysis), vital signs, 12‐lead ECG, primary Holter monitoring, and physical examinations (including evaluation of teeth and gingiva, and evaluation of palms and soles). Because of the mechanism of action of brensocatib, findings of hyperkeratosis, periodontitis/gingivitis, and other infections were reported as adverse events of special interest (AESIs). Renal function (part A only) was monitored by measuring serum creatinine and blood urea nitrogen, performing routine urinalysis, and measuring neutrophil gelatinase–associated lipocalin and cystatin.
# Adverse events (AEs) observed before the first dosing were recorded as medical history. All medical history and AEs were coded using the Medical Dictionary for Regulatory Activities (version 21.1 or higher). A TEAE was defined as an AE that began or worsened in severity after at least 1 dose of study drug was administered. All AEs experienced by a participant were monitored until the event had resolved, any abnormal laboratory values returned to baseline or stabilized, a satisfactory explanation for the changes was identified, or the participant was lost to follow‐up.
# [3] = system: CYP2C9; parameters: method as in unpublished data; details: ref unpublished data; cited from earlier work
# [4] = system: CYP2D6; parameters: method as in unpublished data; details: ref unpublished data, read-out: half maximal inhibitory concentration; cited from earlier work
# [5] = system: CYP2E1; parameters: method as in unpublished data; details: ref unpublished data; cited from earlier work
# [6] = parameters: method as in unpublished data; details: healthy adults; ref unpublished data; cited from earlier work
# [7] = parameters: method as in unpublished data; details: oral or intravenous 14C‐brensocatib, rats; ref unpublished data; cited from earlier work
# [8] = system: organic anion and cation transporters; parameters: method as in unpublished data; details: ref unpublished data, read-out: half maximal inhibitory concentration; cited from earlier work
# [9] = parameters: method as in unpublished data; details: ref unpublished data; cited from earlier work
structure (smiles),measurement,setting,value
Cn1c(=O)oc2ccc(-c3ccc(C[C@@H](C#N)NC(=O)[C@@H]4CNCCCO4)cc3)cc21 [Brensocatib],CYP induction (significant inducer or not),[1],not a significant
same,Any TEAE,"[2]; 10 mg, Japanese (n=8)",3 (37.5) n (%)
same,Headache (TEAE),"[2]; 10 mg, Japanese (n=8)",0 n (%)
same,Nasopharyngitis (TEAE),"[2]; 10 mg, Japanese (n=8)",0 n (%)
same,SAE,"[2]; 10 mg, Japanese (n=8)",0 n (%)
same,Severe TEAE,"[2]; 10 mg, Japanese (n=8)",0 n (%)
same,Skin exfoliation (TEAE),"[2]; 10 mg, Japanese (n=8)",1 (12.5) n (%)
same,TEAE leading to death,"[2]; 10 mg, Japanese (n=8)",0 n (%)
same,TEAE leading to discontinuation,"[2]; 10 mg, Japanese (n=8)",0 n (%)
same,Any TEAE,"[2]; 10 mg, White (n=8)",6 (75.0) n (%)
same,Headache (TEAE),"[2]; 10 mg, White (n=8)",1 (12.5) n (%)
same,Nasopharyngitis (TEAE),"[2]; 10 mg, White (n=8)",2 (25.0) n (%)
same,SAE,"[2]; 10 mg, White (n=8)",0 n (%)
same,Severe TEAE,"[2]; 10 mg, White (n=8)",0 n (%)
same,Skin exfoliation (TEAE),"[2]; 10 mg, White (n=8)",0 n (%)
same,TEAE leading to death,"[2]; 10 mg, White (n=8)",0 n (%)
same,TEAE leading to discontinuation,"[2]; 10 mg, White (n=8)",0 n (%)
same,Any TEAE,"[2]; 25 mg, Japanese (n=9)",5 (55.6) n (%)
same,Headache (TEAE),"[2]; 25 mg, Japanese (n=9)",3 (33.3) n (%)
same,Nasopharyngitis (TEAE),"[2]; 25 mg, Japanese (n=9)",0 n (%)
same,SAE,"[2]; 25 mg, Japanese (n=9)",0 n (%)
same,Severe TEAE,"[2]; 25 mg, Japanese (n=9)",0 n (%)
same,Skin exfoliation (TEAE),"[2]; 25 mg, Japanese (n=9)",2 (22.2) n (%)
same,TEAE leading to death,"[2]; 25 mg, Japanese (n=9)",0 n (%)
same,TEAE leading to discontinuation,"[2]; 25 mg, Japanese (n=9)",0 n (%)
same,Any TEAE,"[2]; 25 mg, White (n=8)",5 (62.5) n (%)
same,Headache (TEAE),"[2]; 25 mg, White (n=8)",1 (12.5) n (%)
same,Nasopharyngitis (TEAE),"[2]; 25 mg, White (n=8)",0 n (%)
same,SAE,"[2]; 25 mg, White (n=8)",0 n (%)
same,Severe TEAE,"[2]; 25 mg, White (n=8)",0 n (%)
same,Skin exfoliation (TEAE),"[2]; 25 mg, White (n=8)",1 (12.5) n (%)
same,TEAE leading to death,"[2]; 25 mg, White (n=8)",0 n (%)
same,TEAE leading to discontinuation,"[2]; 25 mg, White (n=8)",0 n (%)
same,Any TEAE,"[2]; 40 mg, Japanese (n=8)",3 (37.5) n (%)
same,Headache (TEAE),"[2]; 40 mg, Japanese (n=8)",0 n (%)
same,Nasopharyngitis (TEAE),"[2]; 40 mg, Japanese (n=8)",0 n (%)
same,SAE,"[2]; 40 mg, Japanese (n=8)",0 n (%)
same,Severe TEAE,"[2]; 40 mg, Japanese (n=8)",0 n (%)
same,Skin exfoliation (TEAE),"[2]; 40 mg, Japanese (n=8)",0 n (%)
same,TEAE leading to death,"[2]; 40 mg, Japanese (n=8)",0 n (%)
same,TEAE leading to discontinuation,"[2]; 40 mg, Japanese (n=8)",1 (12.5) n (%)
same,Any TEAE,"[2]; 40 mg, White (n=8)",5 (62.5) n (%)
same,Headache (TEAE),"[2]; 40 mg, White (n=8)",2 (25.0) n (%)
same,Nasopharyngitis (TEAE),"[2]; 40 mg, White (n=8)",0 n (%)
same,SAE,"[2]; 40 mg, White (n=8)",0 n (%)
same,Severe TEAE,"[2]; 40 mg, White (n=8)",0 n (%)
same,Skin exfoliation (TEAE),"[2]; 40 mg, White (n=8)",1 (12.5) n (%)
same,TEAE leading to death,"[2]; 40 mg, White (n=8)",0 n (%)
same,TEAE leading to discontinuation,"[2]; 40 mg, White (n=8)",0 n (%)
same,Any TEAE,[2]; pooled brensocatib (N=49),27 (55.1) n (%)
same,Headache (TEAE),[2]; pooled brensocatib (N=49),7 (14.3) n (%)
same,Nasopharyngitis (TEAE),[2]; pooled brensocatib (N=49),2 (4.1) n (%)
same,SAE,[2]; pooled brensocatib (N=49),0 n (%)
same,Severe TEAE,[2]; pooled brensocatib (N=49),0 n (%)
same,Skin exfoliation (TEAE),[2]; pooled brensocatib (N=49),5 (10.2) n (%)
same,TEAE leading to death,[2]; pooled brensocatib (N=49),0 n (%)
same,TEAE leading to discontinuation,[2]; pooled brensocatib (N=49),1 (2.0) n (%)
same,Renal toxicity assessments,[2]; part A,no signs of acute kidney injury
same,participants treated with brensocatib who experienced ≥1 TEAE,[2]; part A,55.1%
same,"AESIs (hyperkeratosis, periodontitis/gingivitis, other infections)",[2]; parts A and B,None of these AESIs were evident
same,"SAEs, severe TEAEs, deaths during the study",[2]; parts A and B,"No SAEs, severe TEAEs, or deaths occurred"
same,tolerability,"[2]; single and multiple administration 10, 25, and 40 mg for 28 days, healthy Japanese and White participants",well tolerated
same,CYP inhibition,[3],no effect
same,IC50,[4],> 30 µM
same,CYP inhibition,[5],no effect
same,excreted in urine as unchanged,[6],≈ 20%
same,"brensocatib in plasma, share of total radioactivity exposure",[7],> 80%
same,"most abundant metabolite in plasma, share of total radioactivity exposure",[7],≈ 3%
same,IC50,[8],> 11 µM
same,degradation in human intestinal microsomes and hepatocytes,[9],minimal degradation
